Patent publication US20250206732A1, “COMPOUNDS AND METHODS FOR THE TARGETED DEGRADATION OF KRAS” (Arvinas Operations, Inc., priority 2022, published 2025)

Target: T1, AsPC-1 HiBiT-KRASG12D (Homo sapiens, UniProt P01116, G12D)
T1 construct: insert the HiBiT tag onto the N-terminus of one or more of the endogenous KRAS alleles; endogenous in cells; host or cells: AsPC-1 (ATCC CRL-1682), CRISPR-Cas9 knock-in clone, one tagged allele
Test: HiBiT degradation assay (G12D), AsPC-1 HiBiT-KRASG12D cells
Assay type: cell-based
Details: 24 hours treatment; for Dmax: ASPC1, AsPC-1 HiBiT-KRASG12D cells, maximum degradation observed; for DC50: AsPC-1 HiBiT-KRASG12D cells, HiBiT luminescence
Procedure, shortened: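 Luminescence read-out of HiBiT-tagged endogenous KRASG12D in AsPC-1 cells after 24 h compound exposure at 37° C; lytic Nano-Glo HiBiT detection, 45 min at room temperature. A parallel alamar blue read (4 h) checked viability, normalized to DMSO-only controls.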

T1 sequence (P01116 1-188 isoform P01116-2 G12D): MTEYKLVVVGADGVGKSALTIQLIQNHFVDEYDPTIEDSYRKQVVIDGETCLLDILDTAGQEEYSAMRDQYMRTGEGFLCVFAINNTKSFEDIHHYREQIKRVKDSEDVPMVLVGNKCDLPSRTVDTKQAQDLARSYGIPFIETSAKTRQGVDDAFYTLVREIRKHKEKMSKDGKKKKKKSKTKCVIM

SMILES | Dmax | DC50
CCc1cccc2cc(O)cc(-c3ncc4c(N5C[C@H]6CC[C@@H](C5)N6)nc(OC[C@@H]5CC[C@@H](COC(=O)N6CCC(Oc7cc([C@@H](C(=O)N8C[C@H](O)C[C@H]8C(=O)N[C@@H](C)c8ccc(-c9scnc9C)cc8)C(C)C)on7)CC6)N5C)nc4c3F)c12 [Compound 255, ((2S,5S)-5-(((4-((1R,5S)-3,8-diazabicyclo[3.2.1]octan-3-yl)-7-(8-ethyl-3-hydroxynaphthalen-1-yl)-8-fluoropyrido[4,3-d]pyrimidin-2-yl)oxy)methyl)-1-methylpyrrolidin-2-yl)methyl 4-((5-((S)-1-((2S,4R)-4-hydroxy-2-(((S)-1-(4-(4-methylthiazol-5-yl)phenyl)ethyl)carbamoyl)pyrrolidin-1-yl)-3-methyl-1-oxobutan-2-yl)isoxazol-3-yl)oxy)piperidine-1-carboxylate] | 20 to 60% | 600 to 1000 nM
CCc1cccc2cc(O)cc(-c3ncc4c(N5CC6CCC(C5)N6)nc(OCCN5CCC(CC6CN(c7cc(C(C(=O)N8C[C@H](O)C[C@H]8C(=O)N[C@@H](C)c8ccc(-c9scnc9C)cc8)C(C)C)on7)C6)CC5)nc4c3F)c12 (relative stereo) [Compound 82, (2S,4R)-1-[(2R*)-2-(3-{3-[(1-{2-[(4-{3,8-diazabicyclo[3.2.1]octan-3-yl}-7-(8-ethyl-3-hydroxynaphthalen-1-yl)-8-fluoropyrido[4,3-d]pyrimidin-2-yl)oxy]ethyl}piperidin-4-yl)methyl]azetidin-1-yl}-1,2-oxazol-5-yl)-3-methylbutanoyl]-4-hydroxy-N-[(1S)-1-[4-(4-methyl-1,3-thiazol-5-yl)phenyl]ethyl]pyrrolidine-2-carboxamide] | 20 to 60% | 600 to 1000 nM
Cc1ncsc1-c1ccc([C@H](C)NC(=O)[C@@H]2C[C@@H](O)CN2C(=O)[C@@H](c2cc(N3CCN(C(=O)OC[C@@H]4CC[C@@]5(COc6nc(N7CC8CCC(C7)N8)c7cc(Cl)c(-c8cc(O)cc9ccccc89)c(F)c7n6)CCCN45)CC3)no2)C(C)C)cc1 (relative stereo) [Compound 330, [(3R,8S)-8-[[6-chloro-4-(3,8-diazabicyclo[3.2.1]octan-3-yl)-8-fluoro-7-(3-hydroxy-1-naphthyl)quinazolin-2-yl]oxymethyl]-1,2,3,5,6,7-hexahydropyrrolizin-3-yl]methyl 4-[5-[(1R)-1-[(2S,4R)-4-hydroxy-2-[[(1S)-1-[4-(4-methylthiazol-5-yl)phenyl]ethyl]carbamoyl]pyrrolidine-1-carbonyl]-2-methyl-propyl]isoxazol-3-yl]piperazine-1-carboxylate] | 60 to 80% | < 600 nM
CCc1cccc2cc(O)cc(-c3ncc4c(N5CC6CCC(C5)N6C=O)nc(OCCN5CCC(CC6CN(c7cc([C@H](C(=O)N8C[C@H](O)C[C@H]8C(=O)N[C@@H](C)c8ccc(-c9scnc9C)cc8)C(C)C)on7)C6)CC5)nc4c3F)c12 [Compound 246] |  | > 3000 nM
C#Cc1c(F)ccc2cc(O)cc(-c3ncc4c(N5CC6CCC(C5)N6)nc(OC[C@]56CCCN5[C@H](COc5cc([C@H](C(=O)N7C[C@H](O)C[C@H]7C(=O)N[C@@H](C)c7ccc(-c8scnc8C)cc7)C(C)C)on5)CC6)nc4c3F)c12 [Compound 311, (2S,4R)-1-[(2R)-2-[3-[[(3S,8R)-8-[[4-(3,8-diazabicyclo[3.2.1]octan-3-yl)-7-(8-ethynyl-7-fluoro-3-hydroxy-1-naphthyl)-8-fluoro-pyrido[4,3-d]pyrimidin-2-yl]oxymethyl]-1,2,3,5,6,7-hexahydropyrrolizin-3-yl]methoxy]isoxazol-5-yl]-3-methyl-butanoyl]-4-hydroxy-N-[(1S)-1-[4-(4-methylthiazol-5-yl)phenyl]ethyl]pyrrolidine-2-carboxamide] | 80 to 100% | < 600 nM
CCc1cccc2cc(O)cc(-c3ncc4c(N5CC6CCC(C5)N6)nc(OCCN5CCC(CC6CN(c7cnc(C(=O)N[C@H](C(=O)N8C[C@H](O)C[C@H]8C(=O)N[C@@H](C)c8ccc(-c9scnc9C)cc8)C(C)(C)C)cn7)C6)CC5)nc4c3F)c12 [Compound 279] | 60 to 80% | < 600 nM
